The text below walks through data of patent US20240182893A1, “INHIBITION OF FGR REDUCES FIBROSIS” (UNIVERSITY OF PITTSBURGH-OF THE COMMONWEALTH SYSTEM OF …, priority 2021, published 2024).

Series [1] relates to other similar kinases. Put plainly: Inhibition of other similar kinases. It is filed as biochemical.
The conditions of series [2]: mice; cited from earlier work.
The subject of series [3] is other similar kinases. To be noted: cited from earlier work.
Series [4] concerns mouse model of radiation-induced pulmonary fibrosis. Briefly: Mouse model of radiation-induced pulmonary fibrosis (18 Gy), qPCR and staining of lungs. It is filed as in vivo. As to the method: FIG. 47. […] Relative mRNA expression of profibrotic genes (Tgf-β, Ctgf, Collagen 1a1, Collagen 3 and Collagen 4), senescence biomarkers (p16 and p21) and tyrosine kinase Fgr was evaluated by qPCR from one lobe of mouse lungs in control, irradiated and treated with Fgr inhibitor TL02-59 post irradiation. Briefly, Mice were irradiated (18 Gy), and TL02-59 treated (10 mg/kg), 3/week at day 75 for 4 weeks. (n=4-13). Statistics was performed, and individual p values were calculated by unpaired t-test.
FIG. 48. Expression of Fgr and p16 from mouse lungs in control, irradiated, and treated with Fgr inhibitor TL02-59 post irradiation. […] Insets on the right from each group were magnified for clarity.
FIG. 47. […] Relative mRNA expression of profibrotic genes (Tgf-β, Ctgf, Collagen 1a1, Collagen 3 and Collagen 4), senescence biomarkers (p16 and p21) and tyrosine kinase Fgr was evaluated by qPCR from one lobe of mouse lungs in control, irradiated and treated with Fgr inhibitor TL02-59 post irradiation. Briefly, Mice were irradiated (18 Gy), and TL02-59 treated (10 mg/kg), 3/week at day 75 for 4 weeks. (n=4-13), Statistics was performed, and individual p values were calculated by unpaired t-test.
On the technique in general: Quantitative PCR measures a nucleic acid by following its amplification.

Values joined by “and” are separate entries in the source; they are usually repeats but may differ in a detail not shown here. Equal entries are not always repeated.

As to `CCN1CCN(Cc2ccc(NC(=O)c3ccc(C)c(Oc4ncnc5cc(OC)c(OC)cc45)c3)cc2C(F)(F)F)CC1` [TL02-59], the “fold greater dose required for inhibition of other similar kinases vs Fgr” value in series [1] was 10 to 100 fold and 10-to-100 fold. For the same compound, in series [2], the oral bioavailability result was “orally bioavailable” and the plasma half-life is listed as 6 h. In addition, in series [3], the “concentration required for inhibition of other similar kinases” value is 100 to 1000 nM. In addition, the “relative mRNA expression of profibrotic genes (Tgf-β, Ctgf, Collagen 1a1, Collagen 3, Collagen 4), senescence biomarkers (p16, p21) and Fgr in lungs (qPCR)” value in series [4] (18 Gy, TL02-59 10 mg/kg, 3/week at day 75 for 4 weeks, FIG. 47) is “reduces profibrotic and biomarkers of senescence”. Further, in series [4] (irradiated, TL02-59 post irradiation, FIG. 48), the “expression of Fgr and p16 proteins in mouse lungs (images)” value was “led to a reduction of both the proteins”.
